Experimental data published in US20230085307A1, “PYRIDAZINONE COMPOUND AND HERBICIDE” (NISSAN CHEMICAL CORPORATION, priority 2019, published 2023).

Legend:
barnyard grass [1] = experiment: Test Example 3: herbicidal effect by foliage application, Wagner pot (Table 18, symbol H); assay type: in vivo, barnyard grass (Echinochloa crus-galli); settings: for herbicidal effect on H (barnyard grass), rating 0-5: 320 g/ha; for herbicidal effect on H: barnyard grass: amount of applied herbicide 320 g/ha
Summary of the method: (§1)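 Plants were sown in alluvial soil held under 0.1–0.5 cm standing water and grown 14 days in a greenhouse at 25–30 °C. An emulsifiable formulation, water-diluted to the set dose, was then sprayed onto the foliage, and effects were scored three weeks later using previously defined criteria.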

blackgrass = experiment: Test Example 5: herbicidal effect by foliage application, plastic box (Table 20, symbol J); assay type: in vivo, blackgrass (Alopecurus myosuroides); settings: foliage application, 320 g/ha, evaluated three weeks after application
Summary of the method: (§2)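 Sow seeds spot-wise in sterilized diluvial soil; cover with ~1.5 cm soil. Grow 14 days in greenhouse, 25° C. to 30° C. Spray foliage with emulsion diluted to predetermined amount. Rate effect after 3 weeks.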

southern crabgrass = experiment: Test Example 5: herbicidal effect by foliage application, plastic box (Table 20, symbol F); assay type: in vivo, southern crabgrass (Digitaria ciliaris); settings: foliage application, 320 g/ha, evaluated three weeks after application
Summary of the method: as §2

windgrass = experiment: Test Example 5: herbicidal effect by foliage application, plastic box (Table 20, symbol L); assay type: in vivo, windgrass (Apera spica-venti); settings: foliage application, 320 g/ha, evaluated three weeks after application
Summary of the method: as §2

rice flat sedge = experiment: Test Example 3: herbicidal effect by foliage application, Wagner pot (Table 18, symbol E); assay type: in vivo, rice flat sedge (Cyperus iria); settings: for herbicidal effect on E (rice flat sedge), rating 0-5: 320 g/ha; for herbicidal effect on E: rice flat sedge: amount of applied herbicide 320 g/ha
Summary of the method: as §1

persian speedwell = experiment: Test Example 5: herbicidal effect by foliage application, plastic box (Table 20, symbol R); assay type: in vivo, Persian speedwell (Veronica persica); settings: foliage application, 320 g/ha, evaluated three weeks after application
Summary of the method: as §2

Chinese sprangletop = experiment: Test Example 3: herbicidal effect by foliage application, Wagner pot (Table 18, symbol D); assay type: in vivo, chinese sprangletop (Leptochloa chinensis); settings: for herbicidal effect on D (Chinese sprangletop), rating 0-5: 320 g/ha; for herbicidal effect on D: Chinese sprangletop: amount of applied herbicide 320 g/ha
Summary of the method: as §1

Italian ryegrass = experiment: Test Example 5: herbicidal effect by foliage application, plastic box (Table 20, symbol K); assay type: in vivo, Italian ryegrass (Lolium multiflorum); settings: foliage application, 320 g/ha, evaluated three weeks after application
Summary of the method: as §2

redroot pigweed = experiment: Test Example 5: herbicidal effect by foliage application, plastic box (Table 20, symbol N); assay type: in vivo, redroot pigweed (Amaranthus retroflexus); settings: foliage application, 320 g/ha, evaluated three weeks after application
Summary of the method: as §2

barnyard grass [2] = experiment: Test Example 5: herbicidal effect by foliage application, plastic box (Table 20, symbol H); assay type: in vivo, barnyard grass (Echinochloa crus-galli); settings: foliage application, 320 g/ha, evaluated three weeks after application
Summary of the method: as §2

wild oat = experiment: Test Example 5: herbicidal effect by foliage application, plastic box (Table 20, symbol I); assay type: in vivo, wild oat (Avena fatua); settings: foliage application, 320 g/ha, evaluated three weeks after application
Summary of the method: as §2

velvetleaf = experiment: Test Example 5: herbicidal effect by foliage application, plastic box (Table 20, symbol M); assay type: in vivo, velvetleaf (Abutilon theophrasti); settings: foliage application, 320 g/ha, evaluated three weeks after application
Summary of the method: as §2

chickweed = experiment: Test Example 5: herbicidal effect by foliage application, plastic box (Table 20, symbol P); assay type: in vivo, common chickweed (Stellaria media); settings: foliage application, 320 g/ha, evaluated three weeks after application
Summary of the method: as §2

green foxtail = experiment: Test Example 5: herbicidal effect by foliage application, plastic box (Table 20, symbol G); assay type: in vivo, green foxtail (Setaria viridis); settings: foliage application, 320 g/ha, evaluated three weeks after application
Summary of the method: as §2

lambsquarters = experiment: Test Example 5: herbicidal effect by foliage application, plastic box (Table 20, symbol O); assay type: in vivo, lambsquarters (Chenopodium album); settings: foliage application, 320 g/ha, evaluated three weeks after application
Summary of the method: as §2

Row | Compound | herbicidal effect on H (barnyard grass), rating 0-5 (barnyard grass [1]) | herbicidal effect on J: blackgrass (blackgrass) | herbicidal effect on F: southern crabgrass (southern crabgrass) | herbicidal effect on L: windgrass (windgrass) | herbicidal effect on E (rice flat sedge), rating 0-5 (rice flat sedge) | herbicidal effect on H: barnyard grass (barnyard grass [1]) | herbicidal effect on J: blackgrass (criteria 0-5) (blackgrass) | herbicidal effect on F: southern crabgrass (criteria 0-5) (southern crabgrass) | herbicidal effect on L: windgrass (criteria 0-5) (windgrass) | herbicidal effect on E: rice flat sedge (rice flat sedge) | herbicidal effect on R: persian speedwell (criteria 0-5) (persian speedwell) | herbicidal effect on D: Chinese sprangletop (Chinese sprangletop) | herbicidal effect on K: Italian ryegrass (criteria 0-5) (Italian ryegrass) | herbicidal effect on N: redroot pigweed (criteria 0-5) (redroot pigweed) | herbicidal effect on H: barnyard grass (criteria 0-5) (barnyard grass [2]) | herbicidal effect on I: wild oat (criteria 0-5) (wild oat) | herbicidal effect on M: velvetleaf (criteria 0-5) (velvetleaf) | herbicidal effect on P: chickweed (criteria 0-5) (chickweed) | herbicidal effect on G: green foxtail (criteria 0-5) (green foxtail) | herbicidal effect on O: lambsquarters (criteria 0-5) (lambsquarters) | also measured
1 | COC(=O)COc1ccc(-c2sc3ccc(F)cc3c2-c2c(O)c(C)nn(C)c2=O)cc1 [2-070] | 2 (Herbicidal rate of 20% or more and less than 40%) | 0 (Herbicidal rate of 5% or less (almost no effect)) | 0 (Herbicidal rate of 5% or less (almost no effect)) | 0 (Herbicidal rate of 5% or less (almost no effect)) | 0 (Herbicidal rate of 5% or less (almost no effect)) |  |  |  |  |  |  |  |  |  |  |  |  |  |  |  | herbicidal effect on R: persian speedwell (persian speedwell): 0 (Herbicidal rate of 5% or less (almost no effect)); herbicidal effect on D (Chinese sprangletop), rating 0-5 (Chinese sprangletop): 0 (Herbicidal rate of 5% or less (almost no effect)); herbicidal effect on K: Italian ryegrass (Italian ryegrass): 0 (Herbicidal rate of 5% or less (almost no effect)); herbicidal effect on N: redroot pigweed (redroot pigweed): 2 (Herbicidal rate of 20% or more and less than 40%); herbicidal effect on H: barnyard grass (barnyard grass [2]): 0 (Herbicidal rate of 5% or less (almost no effect)); herbicidal effect on I: wild oat (wild oat): 0 (Herbicidal rate of 5% or less (almost no effect)); herbicidal effect on M: velvetleaf (velvetleaf): 0 (Herbicidal rate of 5% or less (almost no effect)); herbicidal effect on P: chickweed (chickweed): 0 (Herbicidal rate of 5% or less (almost no effect)); herbicidal effect on G: green foxtail (green foxtail): 0 (Herbicidal rate of 5% or less (almost no effect)); herbicidal effect on O: lambsquarters (lambsquarters): 0 (Herbicidal rate of 5% or less (almost no effect))
2 | Cc1nn(C)c(=O)c(-c2c(-c3ccc(Oc4ccccc4)cc3)sc3ccc(F)cc23)c1O [2-072] | 2 (Herbicidal rate of 20% or more and less than 40%) | 0 (Herbicidal rate of 5% or less (almost no effect)) | 0 (Herbicidal rate of 5% or less (almost no effect)) | 0 (Herbicidal rate of 5% or less (almost no effect)) | 5 (Herbicidal rate of 90% or more (almost completely withered)) |  |  |  |  |  |  |  |  |  |  |  |  |  |  |  | herbicidal effect on R: persian speedwell (persian speedwell): 5 (Herbicidal rate of 90% or more (almost completely withered)); herbicidal effect on D (Chinese sprangletop), rating 0-5 (Chinese sprangletop): 3 (Herbicidal rate of 40% or more and less than 70%); herbicidal effect on K: Italian ryegrass (Italian ryegrass): 0 (Herbicidal rate of 5% or less (almost no effect)); herbicidal effect on N: redroot pigweed (redroot pigweed): 3 (Herbicidal rate of 40% or more and less than 70%); herbicidal effect on H: barnyard grass (barnyard grass [2]): 0 (Herbicidal rate of 5% or less (almost no effect)); herbicidal effect on I: wild oat (wild oat): 0 (Herbicidal rate of 5% or less (almost no effect)); herbicidal effect on M: velvetleaf (velvetleaf): 2 (Herbicidal rate of 20% or more and less than 40%); herbicidal effect on P: chickweed (chickweed): 0 (Herbicidal rate of 5% or less (almost no effect)); herbicidal effect on G: green foxtail (green foxtail): 0 (Herbicidal rate of 5% or less (almost no effect)); herbicidal effect on O: lambsquarters (lambsquarters): 1 (Herbicidal rate of 5% or more and less than 20%)
3 | CSc1ccccc1-c1sc2ccc(C)cc2c1-c1c(O)c(C)nn(C)c1=O [2-142] |  |  |  |  |  | 2 (Herbicidal rate of 20% or more and less than 40%) | 1 (Herbicidal rate of 5% or more and less than 20%) | 0 (Herbicidal rate of 5% or less (almost no effect)) | 0 (Herbicidal rate of 5% or less (almost no effect)) | 2 (Herbicidal rate of 20% or more and less than 40%) | 3 (Herbicidal rate of 40% or more and less than 70%) | 0 (Herbicidal rate of 5% or less (almost no effect)) | 1 (Herbicidal rate of 5% or more and less than 20%) | 0 (Herbicidal rate of 5% or less (almost no effect)) | 0 (Herbicidal rate of 5% or less (almost no effect)) | 1 (Herbicidal rate of 5% or more and less than 20%) | 0 (Herbicidal rate of 5% or less (almost no effect)) | 4 (Herbicidal rate of 70% or more and less than 90%) | 0 (Herbicidal rate of 5% or less (almost no effect)) | 0 (Herbicidal rate of 5% or less (almost no effect)) | 
4 | CCCC(=O)Oc1c(C)nn(C)c(=O)c1-c1c(-c2ccc([N+](=O)[O-])cc2)sc2ccc(C)cc12 [2-145] |  |  |  |  |  | 3 (Herbicidal rate of 40% or more and less than 70%) | 0 (Herbicidal rate of 5% or less (almost no effect)) | 1 (Herbicidal rate of 5% or more and less than 20%) | 0 (Herbicidal rate of 5% or less (almost no effect)) | 4 (Herbicidal rate of 70% or more and less than 90%) | 5 (Herbicidal rate of 90% or more (almost completely withered)) | 0 (Herbicidal rate of 5% or less (almost no effect)) | 3 (Herbicidal rate of 40% or more and less than 70%) | 4 (Herbicidal rate of 70% or more and less than 90%) | 3 (Herbicidal rate of 40% or more and less than 70%) | 0 (Herbicidal rate of 5% or less (almost no effect)) | 4 (Herbicidal rate of 70% or more and less than 90%) | 5 (Herbicidal rate of 90% or more (almost completely withered)) | 3 (Herbicidal rate of 40% or more and less than 70%) | 4 (Herbicidal rate of 70% or more and less than 90%) | 
5 | COc1ccc(-c2sc3ccc(C)cc3c2-c2c(O)c(C)nn(C)c2=O)cc1OC [2-152] |  |  |  |  |  | 0 (Herbicidal rate of 5% or less (almost no effect)) | 0 (Herbicidal rate of 5% or less (almost no effect)) | 0 (Herbicidal rate of 5% or less (almost no effect)) | 0 (Herbicidal rate of 5% or less (almost no effect)) | 3 (Herbicidal rate of 40% or more and less than 70%) | 4 (Herbicidal rate of 70% or more and less than 90%) | 0 (Herbicidal rate of 5% or less (almost no effect)) | 2 (Herbicidal rate of 20% or more and less than 40%) | 0 (Herbicidal rate of 5% or less (almost no effect)) | 0 (Herbicidal rate of 5% or less (almost no effect)) | 0 (Herbicidal rate of 5% or less (almost no effect)) | 0 (Herbicidal rate of 5% or less (almost no effect)) | 5 (Herbicidal rate of 90% or more (almost completely withered)) | 0 (Herbicidal rate of 5% or less (almost no effect)) | 0 (Herbicidal rate of 5% or less (almost no effect)) | 
